Measured values from PMC10590756, “Glutarate regulates T cell metabolism and anti-tumour immunity” (Nature Metabolism, 2023).

Assays:
PDHE2 K259 in HeLa cells = target: T1, PDHE2 K259 in HeLa cells (Homo sapiens, UniProt P10515); assay: Proteomic analysis of PTMs on immunoprecipitated PDHE2; type: cell-based; conditions: 500 µM DEG, 24 h
T1 construct: Proteomic analysis of PDHE2 immunoprecipitated from HeLa cells; endogenous in cells; host or cells: HeLa cells
Protocol: HeLa cells were lysed on ice for 30 min in a HEPES buffer (150 mM NaCl, 50 mM HEPES, pH 7.0, 1% IGEPAL CA-630, 1 mM nicotinamide (Sigma-Aldrich), 5 mM Tris(2-carboxyethyl)phosphine hydrochloride (Sigma-Aldrich), 1× Complete Protease Inhibitor Cocktail (Roche) and 1 mM phenylmethylsulfonyl fluoride). Lysates were centrifuged at 14,000g for 10 min at 4 °C. Free thiols were blocked by adding 10 mM N-ethylmaleimide (NEM) (Sigma-Aldrich) and incubated on a rotator at 4 °C for 1 h. Lysates were immunoprecipitated by incubation with protein G Dynabeads (catalogue no. 10003D, Invitrogen), first for 1 h to pre-clear, and then overnight with the DLAT antibody (12362S (4A4-B6-C10), Cell Signaling Technology). […]
Raw files were processed using PEAKS Studio (v.8.0, Bioinformatics Solutions) with the following parameters: enzyme: AspN, human database (UniProt reference proteome downloaded 21 January 2021 containing 20,541 proteins) with additional contaminant database (containing 246 common contaminants); variable modifications at PEAKS database stage: oxidation, carbamidomethylation, lipoylation, 1× and 2× NEM, glutaryl lipoate, NEM glutaryl lipoate and 309 built-in modifications at PEAKS PTM stage. The area under the curve (AUC) values for each peptide were extracted from the PEAKS peptide list, with AUCs calculated by PEAKS.

PDHc = target: T2, PDHc (Homo sapiens, UniProt P10515); assay: PDHc activity assay on CD8^+ T cell lysates; type: cell-based; conditions: 500 µM DEG
T2 construct: we performed a direct enzymatic activity assay of the PDHc on CD8^+ T cell lysates; endogenous in cells; host or cells: human CD8+ T cells, lysate (activity kit MAK183, Sigma-Aldrich)
Protocol: PDHc activity was determined using a PDHc Activity Assay Kit (catalogue no. MAK183, Sigma-Aldrich). A total of 1 × 10^6 cells were used per reaction and the assay was performed according to the manufacturer’s instructions. Activity was normalized to total protein concentration. Data were acquired on a FLUOstar Omega (BMG Labtech).

human CD19^+ CAR T cells = assay: Growth of human CD19 CAR T cells; type: cell-based; conditions: 500 µM, 7 days
murine OT1 T cells = assay: Growth of murine OT1 T cells; type: cell-based, mouse; conditions: 500 µM, 7 days
Protocol: B16F10 cells were originally purchased from ATCC (catalogue no. CRL-6475) and genetically modified to express OVA, enhanced green fluorescent protein (GFP) and neomycin phosphotransferase. The resulting OVA expression B16F10-OVA cells were cultured in DMEM (catalogue no. 11995065, Thermo Fisher Scientific) containing 0.75 mg ml^−1 G418 sulphate (catalogue no. 10131027, Thermo Fisher Scientific). HEK 293T cells were purchased from Takara Bio (catalogue no. 632180) and cultured in DMEM. SKOV3 was purchased from ATCC (catalogue no. HTB-77) and cultured in McCoy’s 5A (Modified) Medium (catalogue no. 16600082, Thermo Fisher Scientific). Raji-GFP-Luc cells were purchased from Biocytogen (catalogue no. B-HCL-010) and cultured in Roswell Park Memorial Institute (RPMI) 1640 (catalogue no. 21875, Thermo Fisher Scientific). Jurkat cells were purchased from ATCC (catalogue no. TIB-152) and cultured in RPMI 1640. RAW 264.7 cells were purchased from ATCC (catalogue no. TIB-71) and cultured in RPMI 1640. HeLa cells were a gift from P. Lehner (University of Cambridge) and were authenticated using short tandem repeat profiling (Eurofins Genomics). HeLa cells were cultured in DMEM. […] Cell number and viability was determined using the ADAM-MC Automated Cell Counter (NanoEntek), CellDrop Automated Cell Counter (DeNovix) or TC20 Automated Cell Counter (Bio-Rad Laboratories).

[1] = parameters: method as in PMID 29989593; conditions: approved by the European Union for use as a food additive; cited from earlier work

In the case of `CCOC(=O)CCCC(=O)OCC` [DEG, Diethyl glutarate], the “levels of glutaryl-lipoyl K259 of PDHE2” value (PDHE2 K259 in HeLa cells) is reported as “increasing”, the “levels of lipoyl K259 of PDHE2” value (PDHE2 K259 in HeLa cells) is reported as “reduced” and the “PDHc activity, acute exposure” value (PDHc; 30 min) is reported as “decreased PDHc activity”. The “PDHc activity, chronic exposure” value (PDHc; seven day) was “decreased PDHc activity”, the “growth of human CD19^+ CAR T cells” value (human CD19^+ CAR T cells) was “did not affect the growth” and the “growth of murine OT1 T cells” value (murine OT1 T cells) was “did not affect the growth”. The toxicity [1] was “non-toxic”.
